Experimental data: ChEMBL document CHEMBL1153696, “Hypoglycemic polysaccharides from the tuberous root of Liriope spicata” (2009)
Active and inactive are the calls of the source. The rule behind the calls is not given here.

What was measured:
Mus musculus [1] = experiment: Antidiabetic activity in BALB/c mouse type 2 diabetic model assessed as reduction of fasting blood glucose level at 2 mg/kg, po QD measured after 3 weeks by glucometry (Rvb=14.89 +/- 1.42 mmol/L); assay type: functional
Mus musculus [2] = experiment: Hypoglycemic effect in type 2 diabetic BALB/c mouse model assessed as reduction in blood glucose excursion at 2 mg/kg, po pretreated 60 mins before glucose challenge measured up to 3 hrs by one-touch glucometer relative to diabetic control; assay type: functional, organism-based; parameters: dose 2 mg/kg
Mus musculus [3] = experiment: Antidiabetic activity in BALB/c mouse type 2 diabetic model assessed as reduction of fasting blood glucose level at 2 mg/kg, po QD measured after 1 week by glucometry (Rvb=14.89 +/- 1.37 mmol/L); assay type: functional
Mus musculus [4] = experiment: Hypoglycemic effect in type 2 diabetic BALB/c mouse model assessed as reduction in blood glucose excursion at 100 to 200 mg/kg, po pretreated 60 mins before glucose challenge measured up to 3 hrs by one-touch glucometer relative to diabetic control; assay type: functional, organism-based
Mus musculus [5] = experiment: Antidiabetic activity in BALB/c mouse type 2 diabetic model assessed as reduction of fasting blood glucose level at 2 mg/kg, po QD measured after 4 weeks by glucometry (Rvb=15.03 +/- 1.47 mmol/L); assay type: functional
Mus musculus [6] = experiment: Antidiabetic activity in BALB/c mouse type 2 diabetic model assessed as reduction of fasting blood glucose level at 2 mg/kg, po QD measured after 2 weeks by glucometry (Rvb=14.86 +/- 1.58 mmol/L); assay type: functional
Mus musculus [7] = experiment: Antidiabetic activity in BALB/c mouse type 2 diabetic model assessed as reduction of fasting blood glucose level at 100 mg/kg, po QD measured after 3 weeks by glucometry (Rvb=14.89 +/- 1.42 mmol/L); assay type: functional
Mus musculus [8] = experiment: Antidiabetic activity in BALB/c mouse type 2 diabetic model assessed as reduction of fasting blood glucose level at 100 mg/kg, po QD measured after 1 week by glucometry (Rvb=14.89 +/- 1.37 mmol/L); assay type: functional
Mus musculus [9] = experiment: Antidiabetic activity in BALB/c mouse type 2 diabetic model assessed as reduction of fasting blood glucose level at 200 mg/kg, po QD measured after 1 week by glucometry (Rvb=14.89 +/- 1.37 mmol/L); assay type: functional
Mus musculus [10] = experiment: Antidiabetic activity in BALB/c mouse type 2 diabetic model assessed as reduction of fasting blood glucose level at 100 mg/kg, po QD measured after 2 weeks by glucometry (Rvb=14.86 +/- 1.58 mmol/L); assay type: functional
Mus musculus [11] = experiment: Antidiabetic activity in BALB/c mouse type 2 diabetic model assessed as reduction of fasting blood glucose level at 200 mg/kg, po QD measured after 4 weeks by glucometry (Rvb=15.03 +/- 1.47 mmol/L); assay type: functional
Mus musculus [12] = experiment: Antidiabetic activity in BALB/c mouse type 2 diabetic model assessed as reduction of fasting blood glucose level at 200 mg/kg, po QD measured after 2 weeks by glucometry (Rvb=14.86 +/- 1.58 mmol/L); assay type: functional
Mus musculus [13] = experiment: Antidiabetic activity in BALB/c mouse type 2 diabetic model assessed as reduction of fasting blood glucose level at 100 mg/kg, po QD measured after 4 weeks by glucometry (Rvb=15.03 +/- 1.47 mmol/L); assay type: functional
Mus musculus [14] = experiment: Antidiabetic activity in BALB/c mouse type 2 diabetic model assessed as reduction of fasting blood glucose level at 200 mg/kg, po QD measured after 3 weeks by glucometry (Rvb=14.89 +/- 1.42 mmol/L); assay type: functional

Structure (SMILES) | Activity (Mus musculus [1]) [mmol/L] | Activity (Mus musculus [2]) | Activity (Mus musculus [3]) [mmol/L] | Activity (Mus musculus [4]) | Activity (Mus musculus [5]) [mmol/L] | Activity (Mus musculus [6]) [mmol/L] | Activity (Mus musculus [7]) [mmol/L] | Activity (Mus musculus [8]) [mmol/L] | Activity (Mus musculus [9]) [mmol/L] | Activity (Mus musculus [10]) [mmol/L] | Activity (Mus musculus [11]) [mmol/L] | Activity (Mus musculus [12]) [mmol/L] | Activity (Mus musculus [13]) [mmol/L] | Activity (Mus musculus [14]) [mmol/L]
CN(CCOc1ccc(CC2SC(=O)NC2=O)cc1)c1ccccn1 (stereo unspecified) [ROSIGLITAZONE] | 5.04 | Active | 9.58 | Active | 4.94 | 5.54 | – | – | – | – | – | – | – | –
OC[C@H]1OC(CO)(OC[C@H]2O[C@@](CO[C@]3(CO[C@]4(CO[C@]5(CO[C@]6(CO[C@]7(CO)O[C@H](CO)[C@@H](O)[C@@H]7O)O[C@H](CO[C@]7(CO)O[C@H](CO)[C@@H](O)[C@@H]7O)[C@@H](O)[C@@H]6O)O[C@H](CO)[C@@H](O)[C@@H]5O)O[C@H](CO[C@]5(CO)O[C@H](CO)[C@@H](O)[C@@H]5O)[C@@H](O)[C@@H]4O)O[C@H](CO)[C@@H](O)[C@@H]3O)(OC[C@@]3(OC[C@@]4(OC[C@@]5(OC[C@@]6(OC[C@@]7(OC[C@@]8(OC[C@@]9(O[C@@H]%10O[C@H](CO)[C@@H](O)[C@H](O)[C@H]%10O)O[C@H](CO)[C@@H](O)[C@@H]9O)O[C@H](CO[C@]9(CO)O[C@H](CO)[C@@H](O)[C@@H]9O)[C@@H](O)[C@@H]8O)O[C@H](CO)[C@@H](O)[C@@H]7O)O[C@H](CO[C@]7(CO)O[C@H](CO)[C@@H](O)[C@@H]7O)[C@@H](O)[C@@H]6O)O[C@H](CO)[C@@H](O)[C@@H]5O)O[C@H](CO[C@]5(CO)O[C@H](CO)[C@@H](O)[C@@H]5O)[C@@H](O)[C@@H]4O)O[C@H](CO)[C@@H](O)[C@@H]3O)[C@@H](O)[C@@H]2O)[C@@H](O)[C@@H]1O (stereo partly specified) | – | Active | – | Active | – | – | 4.83 | 9.71 | 9.35 | 7.96 | 4.83 | 7.25 | 5.13 | 5.44
OC[C@H]1O[C@@](CO)(OC[C@H]2O[C@@](CO[C@]3(CO[C@]4(CO)O[C@H](CO)[C@@H](O)[C@@H]4O)O[C@H](CO)[C@@H](O)[C@@H]3O)(OC[C@@]3(OC[C@@]4(OC[C@@]5(OC[C@@]6(OC[C@@]7(OC[C@@]8(OC[C@@]9(OC[C@@]%10(OC[C@@]%11(OC[C@@]%12(OC[C@@]%13(OC[C@@]%14(OC[C@@]%15(OC[C@@]%16(OC[C@@]%17(OC[C@@]%18(O[C@@H]%19O[C@H](CO)[C@@H](O)[C@H](O)[C@H]%19O)O[C@H](CO)[C@@H](O)[C@@H]%18O)O[C@H](CO[C@]%18(CO)O[C@H](CO)[C@@H](O)[C@@H]%18O)[C@@H](O)[C@@H]%17O)O[C@H](CO)[C@@H](O)[C@@H]%16O)O[C@H](CO)[C@@H](O)[C@@H]%15O)O[C@H](CO[C@]%15(CO)O[C@H](CO)[C@@H](O)[C@@H]%15O)[C@@H](O)[C@@H]%14O)O[C@H](CO)[C@@H](O)[C@@H]%13O)O[C@H](CO)[C@@H](O)[C@@H]%12O)O[C@H](CO[C@]%12(CO)O[C@H](CO)[C@@H](O)[C@@H]%12O)[C@@H](O)[C@@H]%11O)O[C@H](CO)[C@@H](O)[C@@H]%10O)O[C@H](CO)[C@@H](O)[C@@H]9O)O[C@H](CO[C@]9(CO)O[C@H](CO)[C@@H](O)[C@@H]9O)[C@@H](O)[C@@H]8O)O[C@H](CO)[C@@H](O)[C@@H]7O)O[C@H](CO)[C@@H](O)[C@@H]6O)O[C@H](CO[C@]6(CO)O[C@H](CO)[C@@H](O)[C@@H]6O)[C@@H](O)[C@@H]5O)O[C@H](CO)[C@@H](O)[C@@H]4O)O[C@H](CO)[C@@H](O)[C@@H]3O)[C@@H](O)[C@@H]2O)[C@@H](O)[C@@H]1O | – | Active | – | Active | – | – | 4.7 | 10.04 | 8.65 | 7.05 | 4.78 | 6.16 | 4.63 | 5.14
